{
  "source": "patent US5843916A",
  "about": "“Cyclic amp analogues, individually and in pairs, to inhibit neoplastic cell growth” (priority 1994, dated 1998)",
  "key": {"[1]": {"system": "breast (MCF-7) and colon (LS-174T) cancer cell lines", "assay": "Growth inhibition of breast and colon cancer cells (Table 1)", "type": "cell-based, human", "details": "for inhibition at 50 µM: Homo sapiens", "method_in_brief": "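MCF-7 and LS-174T cells seeded day −1, treated on day 0 and day 2; duplicate Coulter counts on days 3 and 4 after gentle trypsinization. Percent growth inhibition versus untreated controls from dose-response curves, averaged over ≥3 experiments.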"}, "[2]": {"system": "RI and RII cAMP receptor proteins, LS-174T", "assay": "Photoaffinity labelling of cAMP receptor proteins (Table 10, FIG. 6)", "type": "cell-based, human", "details": "3 days, 8-Cl and N^6-benzyl 10 μM, dibutyryl 1 mM; for relative level of RI / relative level of RII: control RI = 1.0 O.D.", "description": "(§1) Photoactivated incorporation of 8-N3 [^32 P] was performed as described below.\n(§2) M is marker proteins of known molecular weight.\n(§3) Each lane contained 50 micrograms protein for SDS-PAGE.\n(§4) The incubations were carried out at 23° C. for 60 minutes in 96-well immunoplates. The reaction mixtures were then irradiated for 30 seconds at 254 nm, placing a Mineralite UVS-11 hand lamp directly onto the plate. The samples were mixed with 25 microliters of 3× sample buffer (3% SDS, 15% beta-mercaptoethanol, 30 mM Tris, 30% glycerol, 1% bromophenol blue saturated solution), boiled for 3 minutes, and centrifuged at 700 × g for five minutes. The samples containing 10-30 micrograms of protein were subjected to 0.05% SDS-12% PAGE. The gels were fixed, dried, and exposed to X-ray films overnight. The protein concentrations were determined by the method of Lowry et al., J. Biol. Chem. 193: 265-275, 1951, with bovine serum albumin as standard.\n(§5) The levels of the receptor proteins are expressed relative to the RI level in the untreated control cells of MDA-MB-231 and LS-174T which are each set equal to 1.0 O.D.; the scale was expanded to differentiate the lower intensity bands."}, "[3]": {"system": "RI and RII cAMP receptor proteins, MDA-MB-231", "assay": "Photoaffinity labelling of cAMP receptor proteins (Table 10, FIG. 6)", "type": "cell-based, human", "details": "3 days, 8-Cl and N^6-benzyl 10 μM, dibutyryl 1 mM; for relative level of RI / relative level of RII: control RI = 1.0 O.D.", "description": "as §1, §2, §3, §4, §5"}, "[4]": {"system": "DMBA-induced mammary carcinomas", "assay": "Growth of DMBA-induced mammary carcinomas, pellet (Table 4)", "type": "in vivo, rat", "details": "for tumor growth: 10 mg pellet for 8-Cl-cAMP, implanted twice every two weeks", "description": "Treated tumors regress almost 100% within 30 days.\n^b 8Cl-cAMP (20 mg pellet per rat, consisting of 10 mg 8Cl-cAMP and […]\nmg cholesterol), was implanted on day 0 and day 14."}, "NMU-2 mammary carcinoma": {"system": "NMU-2 mammary carcinoma", "assay": "Growth of metastatic mammary carcinoma, pellet (Table 5)", "type": "in vivo, rat", "details": "for Change in mean tumor volume (cm^3) / Change in mean tumor volume (%): pellet with 10 mg analogue, day 7; for Change in mean tumor volume (%): none = 100", "description": "Based on the findings with the […] leukemia model, the efficacy of the 8-Cl-cAMP-Na+infusions were evaluated in advanced-stage human tumor xenograft models. Tumor fragments of approximately 14 mg were implanted subcutaneously in athymic CD-1 female mice and seven day intraperitoneal infusions of the cyclic nucleotide were initiated three weeks later when mean tumor weights had reached 300-400 mg. Tumor measurements were recorded on the initial day of treatment (staging day) and one day after treatment was completed (staging day +7), and were used to calculate changes in tumor weights.\nNMU2, a variant of primary hormoneresponsive NMU tumor,\nhormoneindependent, transplantable, and metastatic.\n8Cl-cAMP and DBcAMP were given as a 20mg pellet consisting of 10 mg of […]"}, "[5]": {"system": "cultured human fibroblasts", "details": "cited from earlier work"}, "neuroblastoma cells": {"system": "neuroblastoma cells", "details": "two contradicting studies; cited from earlier work"}, "[6]": {"system": "spindle cell sarcoma with multiple metastasis", "details": "cited from earlier work"}, "[7]": {"system": "mammary carcinomas induced by DMBA", "details": "treatment of hosts; cited from earlier work"}, "[8]": {"target": "T1, Protein kinase type II (cAKII) (Bos taurus, UniProt P00515)", "T1 construct": "prepared from rabbit skeletal muscle and bovine heart; from tissue; host or cells: bovine heart", "T1 sequence (P00515 2-401 limits assumed)": "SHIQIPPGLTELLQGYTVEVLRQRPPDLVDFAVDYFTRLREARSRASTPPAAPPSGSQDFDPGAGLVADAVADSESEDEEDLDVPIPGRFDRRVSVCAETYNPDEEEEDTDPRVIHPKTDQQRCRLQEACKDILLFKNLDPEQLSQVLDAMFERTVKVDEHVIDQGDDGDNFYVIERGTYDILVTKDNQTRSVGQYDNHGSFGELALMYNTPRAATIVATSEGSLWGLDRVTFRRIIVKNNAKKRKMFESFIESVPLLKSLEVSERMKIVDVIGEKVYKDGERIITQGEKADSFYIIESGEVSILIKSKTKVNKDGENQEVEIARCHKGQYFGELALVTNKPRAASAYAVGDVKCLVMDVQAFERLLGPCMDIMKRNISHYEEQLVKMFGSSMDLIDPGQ", "assay": "Protein kinase activation (Table 15)", "type": "biochemical, bovine (heart)", "details": "half-maximum activation; U. M.: unmeasurable", "description": "ATP to Kemptide as described by Ogreid et al., Eur. J. Biochem. 150: 219-227 (1985).\nProtein kinases types I (cAKI) and II (cAKII) were\nprepared from rabbit skeletal muscle and bovine heart,\nrespectively, as described in D.o slashed.skeland et al. (J. Biol.\nof the protein kinase in Ogreid et al. (Eur. J. Biochem."}, "[9]": {"system": "HL-60 human leukemia cells", "assay": "Growth inhibition of HL-60 leukemia cells (Example 3, Table 16)", "type": "cell-based", "details": "for IC50: Homo sapiens", "method_in_brief": "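HL-60 cells were grown in suspension in RPMI 1640 with 10% heat-inactivated FBS, starting at 1 × 10^5 cells/dish. Cells were counted on a Coulter Counter after 3 or 6 days of exposure. IC50 values were read from dose-response data and averaged over two or more separate experiments.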"}, "[10]": {"system": "LS-174T human colon carcinoma cells", "assay": "Additive growth inhibition with 8-Cl-cAMP (Table 19)", "type": "cell-based", "details": "Homo sapiens, LS174T, 96 h; 1 μM; 4 days", "description": "The medium was changed every 48 hours.\nAt desired times, cell counts were performed in duplicate on a Coulter Counter after harvesting cells with gentle trypsinization.\nThe analogues were added at 24"}, "[11]": {"target": "T2, RI, regulatory subunit of cAMP-dependent protein kinase type I (Oryctolagus cuniculus, UniProt G1TDN4)", "T2 construct": "from tissue", "T2 sequence (G1TDN4 1-381)": "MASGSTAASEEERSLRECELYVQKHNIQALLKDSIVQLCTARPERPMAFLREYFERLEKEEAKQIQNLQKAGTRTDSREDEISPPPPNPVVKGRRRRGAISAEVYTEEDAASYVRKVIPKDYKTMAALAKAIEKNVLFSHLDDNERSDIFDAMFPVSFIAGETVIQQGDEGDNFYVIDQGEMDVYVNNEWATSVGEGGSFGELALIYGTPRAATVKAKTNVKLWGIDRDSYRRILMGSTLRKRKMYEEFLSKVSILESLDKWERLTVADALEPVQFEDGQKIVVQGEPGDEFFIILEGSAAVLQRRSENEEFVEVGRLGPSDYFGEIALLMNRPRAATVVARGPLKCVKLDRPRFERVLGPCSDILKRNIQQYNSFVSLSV", "details": "cited from earlier work"}, "[12]": {"system": "RIα and RIIβ isoforms of the cAMP receptor protein; protein kinase type I and II", "details": "cited from earlier work"}, "[13]": {"details": "72 h, 50 μM, day 3, average (range), read-out: % Growth Inhibition, Day 3"}, "[14]": {"details": "96 h, 50 μM, day 4, average (range), read-out: % Growth Inhibition, Day 4"}, "[15]": {"details": "no test described at this place"}},
  "note": "Entries after “also recorded” stand apart in the source; their conditions may differ. Like-named read-outs stand apart in the source and are kept apart here.",
  "data": [
    {"smiles": "CCCC(=O)Nc1ncnc2c1ncn2[C@@H]1O[C@@H]2COP(=O)(O)O[C@H]2[C@H]1OC(=O)CCC", "note": "[DBcAMP, N^6, O^2' -dibutyryl-cAMP, reference compound]", "values": [
      {"measurement": "growth inhibition", "setting": "[1]; 50 micromolar", "result": "no growth inhibition"},
      {"measurement": "inhibition at 50 µM", "setting": "[1]; [13]", "result": 0, "unit": "%"},
      {"measurement": "inhibition at 50 µM", "setting": "[1]; [14]", "result": 0, "unit": "%"},
      {"measurement": "RII/RI", "setting": "[2]", "result": 0.19},
      {"measurement": "relative level of RI", "setting": "[2]", "result": "0.80 ± 0.10"},
      {"measurement": "relative level of RII", "setting": "[2]", "result": "0.15 ± 0.02"},
      {"measurement": "RII/RI", "setting": "[3]", "result": 0.07},
      {"measurement": "relative level of RI", "setting": "[3]", "result": "1.0 ± 0.1"},
      {"measurement": "relative level of RII", "setting": "[3]", "result": "0.07 ± 0.01"},
      {"measurement": "tumor growth", "setting": "[4]", "result": "only arrests this tumor growth without producing regression"},
      {"measurement": "tumor response", "setting": "NMU-2 mammary carcinoma; Table 5", "result": "completely resistant"},
      {"measurement": "Change in mean tumor volume (cm^3)", "setting": "NMU-2 mammary carcinoma", "result": 2.15, "unit": "cm^3"},
      {"measurement": "Change in mean tumor volume (%)", "setting": "NMU-2 mammary carcinoma", "result": 100, "unit": "%"},
      {"measurement": "DNA synthesis", "setting": "[5]; added during first eight hours after serum addition", "result": "not delayed"},
      {"measurement": "DNA synthesis", "setting": "[5]; added more than eight hours after serum addition", "result": "inhibitory"},
      {"measurement": "tumorigenicity", "setting": "neuroblastoma cells", "result": "decreased; also recorded: unaltered"},
      {"measurement": "tumor size", "setting": "[6]; 3-6 mg/kg iv, five hours daily, days 1-9 and 47-56", "result": "The tumor size plateaued and even decreased during both infusion periods"},
      {"measurement": "tumor histology", "setting": "[6]; biopsied on days 2, 14, and 60", "result": "evidence of differentiation"},
      {"measurement": "tumor biochemistry during growth arrest", "setting": "[7]", "result": "estrogen binding decreases whereas cAMP binding and cAMP-dependent protein kinase activity increase; also recorded: sharp reduction of the translated p21 protein"}
    ]},
    {"smiles": "Nc1ncnc2c1nc(Cl)n2[C@@H]1O[C@@H]2COP(=O)(O)O[C@H]2[C@H]1O", "note": "[8-Cl-cAMP, 8-chloro-adenosine 3': 5'-monophosphate]", "values": [
      {"measurement": "inhibition at 50 µM", "setting": "[1]; [13]", "result": 67, "unit": "%"},
      {"measurement": "inhibition at 50 µM", "setting": "[1]; [14]", "result": 75, "unit": "%"},
      {"measurement": "inhibition at 50 µM", "setting": "[1]; 50 micromolar, read-out: growth inhibition", "result": "40 to 75", "unit": "%"},
      {"measurement": "RII/RI", "setting": "[2]", "result": 1.25},
      {"measurement": "relative level of RI", "setting": "[2]", "result": "0.20 ± 0.02"},
      {"measurement": "relative level of RII", "setting": "[2]", "result": "0.25 ± 0.02"},
      {"measurement": "RII/RI", "setting": "[3]", "result": 0.60},
      {"measurement": "relative level of RI", "setting": "[3]", "result": "0.25 ± 0.03"},
      {"measurement": "relative level of RII", "setting": "[3]", "result": "0.15 ± 0.01"},
      {"measurement": "tumor growth", "setting": "[4]", "result": "completely stopped tumor growth"},
      {"measurement": "tumor regression", "setting": "[4]; 10 mg pellet, within 30 days", "result": "~100", "unit": "%"},
      {"measurement": "Mean % of change in tumor volume", "setting": "[4]; pellet day 0 and day 14, day 30, mean ± S.E.", "result": "-96 ± 20", "unit": "%"},
      {"measurement": "Change in mean tumor volume (cm^3)", "setting": "NMU-2 mammary carcinoma", "result": 1.10, "unit": "cm^3"},
      {"measurement": "Change in mean tumor volume (%)", "setting": "NMU-2 mammary carcinoma", "result": 51, "unit": "%"},
      {"measurement": "inhibition of tumor growth", "setting": "NMU-2 mammary carcinoma; pellet, seven days", "result": "40-50%"},
      {"measurement": "Activation Constant (Ka), cAKII", "setting": "[8]", "result": "1.0 × 10^-7"},
      {"measurement": "growth inhibitory potency", "setting": "[9]; HL-60", "result": "potent growth inhibitor of HL-60 cells"},
      {"measurement": "IC50", "setting": "[9]; HL-60, 72 h, read-out: Growth inhibition (IC50), Day 3", "result": 5000, "unit": "nM"},
      {"measurement": "IC50", "setting": "[9]; HL-60, 144 h, read-out: Growth inhibition (IC50), Day 6", "result": 400, "unit": "nM"},
      {"measurement": "inhibition at 1 µM", "setting": "[10]", "result": 30, "unit": "%"},
      {"measurement": "relative affinity Ki (cAMP)/Ki (analogue), RI Site A", "setting": "[11]; Site A (Site 2), literature", "result": 2.71},
      {"measurement": "relative affinity Ki (cAMP)/Ki (analogue), RI Site B", "setting": "[11]; Site B (Site 1), literature", "result": 2.0},
      {"measurement": "site selectivity of binding to RI", "setting": "[11]", "result": "binds to site 2 of the RI receptor"},
      {"measurement": "effect on protein kinase isozyme type I", "setting": "[12]; literature", "result": "drastically downregulates type I protein kinase"},
      {"measurement": "effect on protein kinase isozyme type II", "setting": "[12]; literature", "result": "upregulating type II protein kinase in its holoenzyme form"},
      {"measurement": "effect on RIIβ isoform", "setting": "[12]; [15]", "result": "upregulates the RII β, isoform"},
      {"measurement": "effect on RIα isoform", "setting": "[12]; [15]", "result": "downregulates the RIα isoform"}
    ]}
  ]
}
